Data reported in the NIST ThermoML archive (doi:10.1021/acs.jced.9b00424).
Numbers after ± are expanded uncertainties.

How the values were obtained:
[1] = xn = mol fraction of the nth substance listed; conditions: x1 = 1; for viscosity: 100 kPa, Concentric cylinders viscometry; for viscosity / mass density: Liquid; for mass density: 101 kPa, Vibrating tube method; for surface tension liquid-gas: Pendant drop shape

CCCCCCCC(=O)O [octanoic acid]
Liquid, Pendant drop shape
Conditions	surface tension liquid-gas [mN/m]
297.82 K	30.95 ± 3
302.68 K	30.04 ± 3
308.49 K	28.56 ± 3
312.93 K	27.56 ± 3
317.8 K	26.06 ± 3
322.15 K	24.99 ± 3
327.39 K	24.46 ± 3
331.72 K	23.43 ± 3

Liquid
Conditions	mass density [kg/m3]	viscosity [mPa·s]
298.15 K, 100 kPa, Concentric cylinders viscometry	–	5.17 ± 0.21
298.15 K, 101 kPa, Vibrating tube method	917.2 ± 10	–
303.15 K, 100 kPa, Concentric cylinders viscometry	–	4.54 ± 0.18
303.15 K, 101 kPa, Vibrating tube method	910.3 ± 10	–
308.15 K, 100 kPa, Concentric cylinders viscometry	–	4.01 ± 0.16
308.15 K, 101 kPa, Vibrating tube method	903.8 ± 10	–
313.15 K, 100 kPa, Concentric cylinders viscometry	–	3.59 ± 0.15
313.15 K, 101 kPa, Vibrating tube method	897.6 ± 10	–
318.15 K, 100 kPa, Concentric cylinders viscometry	–	3.2 ± 0.13
318.15 K, 101 kPa, Vibrating tube method	891.7 ± 10	–
323.15 K, 100 kPa, Concentric cylinders viscometry	–	2.88 ± 0.12
323.15 K, 101 kPa, Vibrating tube method	886.2 ± 10	–
328.15 K, 100 kPa, Concentric cylinders viscometry	–	2.609 ± 0.11
328.15 K, 101 kPa, Vibrating tube method	880.9 ± 10	–
333.15 K, 100 kPa, Concentric cylinders viscometry	–	2.372 ± 0.096
333.15 K, 101 kPa, Vibrating tube method	876 ± 10	–
338.15 K, 100 kPa, Concentric cylinders viscometry	–	2.166 ± 0.088
338.15 K, 101 kPa, Vibrating tube method	871.4 ± 10	–
343.15 K, 100 kPa, Concentric cylinders viscometry	–	1.985 ± 0.081
343.15 K, 101 kPa, Vibrating tube method	867.1 ± 10	–
348.15 K, 100 kPa, Concentric cylinders viscometry	–	1.826 ± 0.074
348.15 K, 101 kPa, Vibrating tube method	863 ± 10	–
353.15 K, 100 kPa, Concentric cylinders viscometry	–	1.683 ± 0.068
353.15 K, 101 kPa, Vibrating tube method	859.3 ± 10	–

CC(C)[C@@H]1CC[C@@H](C)C[C@H]1O [DL-menthol] + CCCCCCCC(=O)O
[1]
Conditions	mass density [kg/m3]	surface tension liquid-gas [mN/m]	viscosity [mPa·s]
303.15 K	898.2 ± 11	–	33.9 ± 1.6
303.79 K	–	21.82 ± 3.1	–
308.15 K	892.2 ± 11	–	23.19 ± 1.1
308.76 K	–	21.35 ± 3.1	–
313.15 K	886.4 ± 11	–	16.44 ± 0.78
314.03 K	–	20.44 ± 3.1	–
318.15 K	881 ± 11	–	12 ± 0.57
318.76 K	–	19.91 ± 3.1	–
323.15 K	875.8 ± 11	–	9 ± 0.43
323.45 K	–	19.18 ± 3.1	–
328.15 K	870.8 ± 11	–	6.92 ± 0.33
328.55 K	–	18.76 ± 3	–
333.09 K	–	18.15 ± 3	–
333.15 K	866.2 ± 11	–	5.43 ± 0.26
338.15 K	861.7 ± 11	–	4.34 ± 0.21
343.15 K	857.6 ± 11	–	3.53 ± 0.17
348.15 K	853.7 ± 11	–	2.92 ± 0.14
353.15 K	850 ± 11	–	2.446 ± 0.12

CC(C)[C@@H]1CC[C@@H](C)C[C@H]1O (racemic) [DL-menthol]
Conditions	mass density [kg/m3]	viscosity [mPa·s]
303.15 K, 100 kPa, Metastable liquid, Concentric cylinders viscometry	–	33.9 ± 1.6
303.15 K, 101 kPa, Metastable liquid, Vibrating tube method	898.2 ± 11	–
308.15 K, 100 kPa, Concentric cylinders viscometry, Liquid	–	23.19 ± 1.1
308.15 K, 101 kPa, Vibrating tube method, Liquid	892.2 ± 11	–
313.15 K, 100 kPa, Concentric cylinders viscometry, Liquid	–	16.44 ± 0.78
313.15 K, 101 kPa, Vibrating tube method, Liquid	886.4 ± 11	–
318.15 K, 100 kPa, Concentric cylinders viscometry, Liquid	–	12 ± 0.57
318.15 K, 101 kPa, Vibrating tube method, Liquid	881 ± 11	–
323.15 K, 100 kPa, Concentric cylinders viscometry, Liquid	–	9 ± 0.43
323.15 K, 101 kPa, Vibrating tube method, Liquid	875.8 ± 11	–
328.15 K, 100 kPa, Concentric cylinders viscometry, Liquid	–	6.92 ± 0.33
328.15 K, 101 kPa, Vibrating tube method, Liquid	870.8 ± 11	–
333.15 K, 100 kPa, Concentric cylinders viscometry, Liquid	–	5.43 ± 0.26
333.15 K, 101 kPa, Vibrating tube method, Liquid	866.2 ± 11	–
338.15 K, 100 kPa, Concentric cylinders viscometry, Liquid	–	4.34 ± 0.21
338.15 K, 101 kPa, Vibrating tube method, Liquid	861.7 ± 11	–
343.15 K, 100 kPa, Concentric cylinders viscometry, Liquid	–	3.53 ± 0.17
343.15 K, 101 kPa, Vibrating tube method, Liquid	857.6 ± 11	–
348.15 K, 100 kPa, Concentric cylinders viscometry, Liquid	–	2.92 ± 0.14
348.15 K, 101 kPa, Vibrating tube method, Liquid	853.7 ± 11	–
353.15 K, 100 kPa, Concentric cylinders viscometry, Liquid	–	2.446 ± 0.12
353.15 K, 101 kPa, Vibrating tube method, Liquid	850 ± 11	–

surface tension liquid-gas [mN/m]
Conditions	303.79 K	308.76 K	314.03 K	318.76 K	323.45 K	328.55 K	333.09 K
Metastable liquid, Pendant drop shape	21.82 ± 3.1	–	–	–	–	–	–
Pendant drop shape, Liquid	–	21.35 ± 3.1	20.44 ± 3.1	19.91 ± 3.1	19.18 ± 3.1	18.76 ± 3	18.15 ± 3
